Results from patent publication US8404664B2, “Phosphonated Rifamycins and uses thereof for the prevention and treatment of bone and joint infections” (Targanta Therapeutics, Inc., priority 2005, dated 2013).
≈ marks a conversion by molar mass, not a printed value.

What was measured:
S. aureus ATCC 13709 [1] = assay: Antibacterial susceptibility (MIC), NCCLS broth microdilution; assay type: cell-based; conditions: for Antibacterial activity (in words, summary of Table 1): summary over the strains of Table 1
Summary of the method: (§1)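 Two-fold serial dilutions in DMSO tested in cation-adjusted Mueller Hinton broth per NCCLS M26-A, 5×10^5 c.f.u./mL inoculum, 1.25% final DMSO, duplicates.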

[2] = system: S. aureus ATCC 43300 (Fluoroquinolone sensitive MRSA); assay: as above; assay type: cell-based
Summary of the method: as §1

[3] = system: S. aureus BK85 (Fluoroquinolone resistant MRSA); assay: as above; assay type: cell-based
Summary of the method: as §1

S. aureus RN4220 = assay: as above; assay type: cell-based; conditions: CAMHB, 37° C., 18 h
Summary of the method: as §1

[4] = system: S. aureus ATCC 13709 Novobiocin and Rifampicin resistant variant; assay: microbe, parasite or virus in culture; assay type: cell-based; conditions: for Minimum inhibitory concentration, S. aureus ATCC 13709 variant: Novobiocin and Rifampicin resistant variant
Summary of the method: as §1

S. aureus ATCC 13709 [5] = assay: Antibacterial susceptibility (MIC) in the presence of serum; assay type: cell-based; conditions: for MIC: Staphylococcus aureus, ATCC13709, 18 h
[6] = system: E. coli LBB925 (tolC mutant); assay: Antibacterial susceptibility (MIC), NCCLS broth microdilution; assay type: cell-based; conditions: for Minimum inhibitory concentration, E. coli LBB925: tolC mutant
[7] = Regeneration of drug from bone powder-bound prodrug; assay type: in vitro ADME; conditions: for % Conversion of bone-bound prodrug to parent drug: 24 h incubation, 37° C.; for Impact of the medium on the rate of regeneration of parent drug (in words): serum compared to PBS
[8] = system: S. aureus (chronic bone infection); assay: Treatment of chronic osteomyelitis caused by S. aureus in rat model; assay type: in vivo; conditions: for Decrease in bacterial titer / Effect on bacterial titer in bone infection versus the untreated control (figure legends): prodrug iv at 20 mg/kg parent equivalent; for Decrease in bacterial titer: q24hx4+q4 days, FIGS. 3, 4, 5; for Effect on bacterial titer in bone infection versus the untreated control (figure legends): regimen of the figure, 4 weeks post-infection
Source text: To appraise the ability of bisphosphonated prodrugs of Rifamycin derivatives in treating chronic bone infections, a comparison was made between parent compounds 9, 56, 69, rifabutin and rifalazil (all of which are non-bisphosphonated rifamycin derivatives), and their corresponding bisphosphonated prodrugs, respectively 11, 62, 71, 36 and 81, when used to treat chronically (14- to 28-day) infected rats for 4 weeks of antimicrobial therapy.
In this experiment, rats were infected as described in Example 4 and treated with either 20 mg/kg of body weight of the specific rifamycin derived antibacterial agent subcutaneously, or a molar equivalent dose of its bisphosphonated prodrug intravenously according to the indicated schedule after instillation of bacteria. The standard controls involving no treatment and a subcutaneous treatment of 20 mg/kg of Rifampicin daily were also included. The rats were humanely sacrificed at the conclusion of the experiment and the bacterial titers in the infected tibiae were determined.
This experiment was performed with 20 mg/kg of body weight of rifamycin derivative 9 subcutaneously or with 32 mg/kg of its prodrug 11 (corresponding to 20 mg/kg of 9) intravenously on each of the 20th, 24th, 28th, 32nd, 36th, 40th and […] days (q4 days) after instillation of bacteria. Alternatively, 11 was administered by the same route and at the same dose on the 20th, 21st, 22nd, 23rd, 30th, 37th, 44th and 47th days (q24hx4+q7d) after the instillation of bacteria. The same controls (no treatment or daily subcutaneous 20 mg/kg dose of rifampicin) were used. The rats were humanely sacrificed on the 48th day after the initiation of infection and the bacterial titers in the infected tibiae were determined.
This experiment was also executed in which similarly infected rats were treated with either 20 mg/kg of body weight of rifabutin subcutaneously or with 33.4 mg/kg of its prodrug 36 (corresponding to 20 mg/kg of rifabutin) intravenously on each of the 28th, 32nd, 36th, 40th, 44th, 48th and 52nd days (q4 days) after instillation of bacteria. The same controls (no treatment or daily subcutaneous 20 mg/kg dose of rifampicin) were used. The rats were humanely sacrificed on the 55th day after the initiation of infection and the bacterial titers in the infected tibiae were determined.
This experiment was also executed in which similarly infected rats were treated with either 20 mg/kg of body weight of the rifamycin derived antibacterial agent 56 subcutaneously or with 26 mg/kg of its prodrug 62 (corresponding to 20 mg/kg of 56) intravenously on each of the 27th, 28th, 29th, 30th, 34th, 38th, 42nd, 46th and 50th days (q24hx4+q4 days) after instillation of bacteria. The same controls (no treatment or daily subcutaneous 20 mg/kg dose of rifampicin) were used. The rats were humanely sacrificed on the 51^St day after the initiation of infection and the bacterial titers in the infected tibiae were determined.
This experiment was also executed in which similarly infected rats were treated with either 20 mg/kg of body weight of the rifamycin derived antibacterial agent 69 subcutaneously or with 28 mg/kg of its prodrug 71 (corresponding to 20 mg/kg of 69) intravenously on each of the 18th, 19th, 20th, 21st, 25th, 29th, 33rd, 37th, 41st and 45th days (q24hx4+q4 days) after instillation of bacteria. The same controls (no treatment or daily subcutaneous 20 mg/kg dose of rifampicin) were used. The rats were humanely sacrificed on the 46th day after the initiation of infection and the bacterial titers in the infected tibiae were determined.

[9] = FIG. 1: 9 20 mg/kg sc q4 days, 11 32 mg/kg iv q4d or q24hx4+q7d

Row | Compound | Minimum inhibitory concentration, S. aureus ATCC 13709 (S. aureus ATCC 13709 [1]) | Antibacterial activity (in words, summary of Table 1) (S. aureus ATCC 13709 [1]) | Minimum inhibitory concentration, S. aureus ATCC 43300 [2] | Minimum inhibitory concentration, S. aureus BK85 [3] | Minimum inhibitory concentration, S. aureus RN4220 (S. aureus RN4220) | Activity against the Rifampicin resistant variant of S. aureus ATCC13709 (in words) [4] | Minimum inhibitory concentration, S. aureus ATCC 13709 variant [4] | Minimum inhibitory concentration, S. aureus ATCC 13709 + 50% Human Serum (S. aureus ATCC 13709 [5]) | Minimum inhibitory concentration, S. aureus ATCC 13709 + 50% Mouse Serum (S. aureus ATCC 13709 [5]) | Minimum inhibitory concentration, S. aureus ATCC 13709 + 50% Rat Serum (S. aureus ATCC 13709 [5]) | Minimum inhibitory concentration, E. coli LBB925 [6] | % Conversion of bone-bound prodrug to parent drug ([7]; 50% Human Serum) | % Conversion of bone-bound prodrug to parent drug ([7]; 50% Rat Serum) | % Conversion of bone-bound prodrug to parent drug ([7]; PBS) | Impact of the medium on the rate of regeneration of parent drug (in words) [7] | Decrease in bacterial titer [8] | Effect on bacterial titer in bone infection versus the untreated control (figure legends) [8] | Effect on bacterial titer in bone (in words) [8, 9] | also measured
1 | CO[C@H]1/C=C/O[C@@]2(C)Oc3c(C)c(O)c4c(=O)c(c5oc6cc(N7CCN(CCC(=O)c8ccc(OCCCC(P(=O)(O)O)P(=O)(O)O)cc8)CC7)cc(O)c6nc-5c4c3C2=O)NC(=O)/C(C)=C\C=C\[C@H](C)[C@H](O)[C@@H](C)[C@@H](O)[C@@H](C)[C@H](OC(C)=O)[C@@H]1C [Compound 71] | 0.0019 µg/mL (≈ 0.00152 µM) | very low MICs | 0.0019 µg/mL (≈ 0.00152 µM) | 0.0019 µg/mL (≈ 0.00152 µM) | 0.0039 µg/mL (≈ 0.00312 µM) | complete lack of activity | 128 µg/mL (≈ 102 µM) | 0.032 µg/mL | 0.032 µg/mL | 0.032 µg/mL | >128 µg/mL | 0.46% | 0.38% | 0.1% | significant acceleration | approximately 1 logarithmic order of magnitude | small but statistically significant effect | – | –
2 | CO[C@H]1/C=C/O[C@@]2(C)Oc3c(C)c(O)c4c(=O)c(c5oc6cc(N7CCN(CC(C)C)CC7)cc(O)c6nc-5c4c3C2=O)NC(=O)/C(C)=C\C=C\[C@H](C)[C@H](OC(=O)CCCOC(=O)CCC(=O)NC(P(=O)(O)O)P(=O)(O)O)[C@@H](C)[C@@H](O)[C@@H](C)[C@H](OC(C)=O)[C@@H]1C [Compound 81, 21-O-(4-((3-(bisphosphonomethyl)carbamoyl)propanoyloxy)butanoyl)-1′,4-Didehydro-1-deoxy-1,4-dihydro-3′-hydroxy-5′-[4-(2-methylpropyl)-1-piperazinyl]-1-oxorifamycin VIII] | 0.001 µg/mL (≈ 0.000769 µM) | very low MICs | 0.001 µg/mL (≈ 0.000769 µM) | 0.001 µg/mL (≈ 0.000769 µM) | 0.001 µg/mL (≈ 0.000769 µM) | complete lack of activity | >128 µg/mL | 0.125 µg/mL | 0.0625 µg/mL | 0.03125 µg/mL | >128 µg/mL | – | 2.50% | 1.98% | not significantly impacted | approximately 1 logarithmic order of magnitude | small but statistically significant effect | – | –
3 | 3-(((4-(2-(3-((bisphosphonomethyl)carbamoyl)propanoyloxy)ethyl)-1-piperazinyl)imino)methyl)rifamycin [Compound 11] | 0.125 µg/mL | – | 0.25 µg/mL | 0.25 µg/mL | 0.25 µg/mL | – | – | 0.25 µg/mL | 0.25 µg/mL | 0.25 µg/mL | 32 µg/mL | 1.01% | 1.01% | 0.97% | not significantly impacted | – | small but not statistically significant effect | not statistically significant | Impact of serum on the MICs (in words) (S. aureus ATCC 13709 [5]): no impact; Regeneration of parent drug once bound to bone (in words) [7]: appreciable rates of regeneration
4 | CO[C@H]1/C=C/O[C@@]2(C)Oc3c(C)c(O)c4c(O)c(c(/C=N/N5CCN(CCO)CC5)c(O)c4c3C2=O)NC(=O)/C(C)=C\C=C\[C@H](C)[C@H](O)[C@@H](C)[C@@H](O)[C@@H](C)[C@H](OC(C)=O)[C@@H]1C [Compound 9, 3-(((4-(2-hydroxyethyl)-1-piperazinyl)imino)methyl)rifamycin] | – | – | – | – | – | – | – | – | – | – | – | – | – | – | – | – | – | completely ineffective | MIC (S. aureus ATCC 13709 [1]; Staphylococcus aureus, ATCC13709, read-out: Minimum inhibitory concentration, S. aureus ATCC 13709): 0.016 µg/mL (≈ 0.0188 µM); MIC ([2]; Staphylococcus aureus, read-out: Minimum inhibitory concentration, S. aureus ATCC 43300): 0.016 µg/mL (≈ 0.0188 µM); MIC ([3]; Staphylococcus aureus, read-out: Minimum inhibitory concentration, S. aureus BK85): 0.016 µg/mL (≈ 0.0188 µM); MIC (S. aureus RN4220; Staphylococcus aureus, RN4220, read-out: Minimum inhibitory concentration, S. aureus RN4220): 0.016 µg/mL (≈ 0.0188 µM); MIC (S. aureus ATCC 13709 [5]; read-out: Minimum inhibitory concentration, S. aureus ATCC 13709 + 50% Human Serum): 0.062 µg/mL; MIC (S. aureus ATCC 13709 [5]; read-out: Minimum inhibitory concentration, S. aureus ATCC 13709 + 50% Mouse Serum): 0.062 µg/mL; MIC (S. aureus ATCC 13709 [5]; read-out: Minimum inhibitory concentration, S. aureus ATCC 13709 + 50% Rat Serum): 0.062 µg/mL; MIC ([6]; Escherichia coli, read-out: Minimum inhibitory concentration, E. coli LBB925): 16 µg/mL (≈ 18.8 µM); Effect on bacterial titer in bone (in words) ([8]; 20 mg/kg sc once daily, 15th to 28th day after infection, FIG. 6): smaller but still statistically significant reduction
